These results are taken from ChEMBL document CHEMBL5149985, “Discovery of cytotoxic natural products from Red Sea sponges: Structure and synthesis” (Eur J Med Chem, 2021).

One test deals with P388. Description: Anticancer activity against mouse P388 cells assessed as cell growth inhibition. The test is classed as functional, cell-based.
The test system of another test is A549. Description: Anticancer activity against human A549 cells assessed as cell growth inhibition. The test is classed as functional, cell-based.
The subject of a further test is HT-29. Description: Anticancer activity against human HT-29 cells assessed as cell growth inhibition. The class given is functional, cell-based.
The next test deals with HCT-116. The experiment in a line: cells. As to conditions: Homo sapiens.
The subject of test [1] is HepG2. Description: cells. As to conditions: Homo sapiens.
Description: Anticancer activity against human HepG2 cells assessed as inhibition of cell growth by MTT assay
Test [2] concerns HepG2. Description: Anticancer activity against human HepG2 cells assessed as inhibition of cell growth. The test is classed as functional, cell-based.
The test system of test [3] is MDA-MB-231. Description: Anticancer activity against human MDA-MB-231 cells assessed as cell viability measured after 24 hrs by MTT assay. The class given is functional, cell-based. The following applies: MDA-MB-231, 24 h.
The next test relates to MCF7. Description: Anticancer activity against human MCF7 cells assessed as inhibition of cell growth incubated for 72 hrs by MTT assay. The class given is functional, cell-based. As to conditions: MCF7, 72 h. (In general: Tetrazolium assays rely on reduction of a dye to a coloured formazan, in cell work by metabolically active cells.)
In test [4] the test system is MDA-MB-231. The experiment in a line: Anticancer activity against human MDA-MB-231 cells assessed as inhibition of cell growth incubated for 72 hrs by MTT assay. As to conditions: MDA-MB-231, 72 h. The test is classed as functional, cell-based.
Test [5] in a line: Inhibition of actin (unknown origin) polymerization at 100 nM incubated for 20 mins in presence of ATP by ELISA analysis relative to control. As to conditions: Homo sapiens.
For the next test, the species on record is Homo sapiens. Description: Inhibition of actin (unknown origin) polymerization at 1 uM incubated for 20 mins in presence of ATP by ELISA analysis relative to control. (In general: An ELISA detects its analyte on a solid surface through an enzyme-linked reagent.)
The nature of test [6]: Inhibition of actin (unknown origin) polymerization incubated for 20 mins in presence of ATP by ELISA analysis. The arrangement: species or system Homo sapiens.

Counter-ions that a name gives are not always drawn. A value given as a limit tells only on which side of the number the result lay.

Description for HCT-116: Anticancer activity against human HCT-116 cells assessed as inhibition of cell growth by MTT assay

Regarding `C=C1CCCC(C)(C)C1(O)CCC[C@@]1(C)CC[C@@H]([C@H](C)C(=O)OC)OO1` (stereo partly specified), the concentration for half-maximal inhibition (IC50) with P388, in the test with A549 and in the test with HT-29 was at least 1 µg/mL in each case.
As for `CC(=O)O[C@H]1C[C@H]2[C@@](C)(CC[C@H]3C(C)(C)CCC[C@]23C)[C@@H]2CC=C(C(C)=O)C[C@]21C`, the IC50 with HCT-116 turned out to be 1.8 nM; in the test on HepG2 [1], 4.4 nM.
On to `C/C1=C/C(=O)O[C@@H]2C[C@@H](CC[C@H](C)/C=C\CC1)O[C@@](O)([C@@H]1CS(=O)(=O)C(=O)N1O)C2`, for which the IC50 in the test on HepG2 [2] was found to be 16300 nM.
Same read-out and setting: the value for `C/C1=C/C(=O)O[C@@H]2C[C@@H](CC[C@H](C)/C=C\CC1)O[C@@](O)([C@@H]1CSC(=O)N1)C2` [LATRUNCULIN B] was 19300 nM.
As for `CCSc1ccc(/C=C2\NC(=O)NC2=O)cc1`, the IC50 with MDA-MB-231 [3] is 43400 nM.
As for `CC(=O)CCCC(C)(C)C(=O)CC/C(C)=C/CC[C@@]1(C)CC[C@H]([C@H](C)C(=O)O)OO1` [AIKUPIKOXIDE A], the 50% inhibitory concentration (IC50) in the test on P388, in the test on A549 and with HT-29 was at least 1 µg/mL throughout.
As for `CO[C@]1([C@@H]2CSC(=O)N2Cc2ccccc2)C[C@H]2C[C@@H](CC[C@H](C)/C=C\C=C\CC/C(C)=C\C(=O)O2)O1`, the values for the IC50 (with MCF7; in the test on MDA-MB-231 [4]; in [6]) were 780 nM, 6820 nM and 333 nM, respectively. The inhibition in [5] was 33%; in the test listed under Homo sapiens, 67%.
`CO[C@]1([C@@H]2CSC(=O)N2C(=O)c2ccccc2)C[C@H]2C[C@@H](CC[C@H](C)/C=C\C=C\CC/C(C)=C\C(=O)O2)O1`: the figures for the 50% inhibitory concentration (IC50) (in the test with MCF7; with MDA-MB-231 [4]; in [6]) were 550 nM, 4480 nM and 834 nM, respectively. Besides, the inhibition in test [5] turned out to be 17%; in the test listed under Homo sapiens, 53%.
Turning to `COC(=O)[C@@H](C)[C@@H]1CC[C@](C)(CCC(=O)C(C)(C)CCCC(C)=O)OO1` [DIACARPEROXIDE B], the IC50 in the test on P388, with A549 and in the test on HT-29 was at least 1 µg/mL in each case.
In the case of `C=C(CCCC(C)(C)O)C(=O)CC[C@@]1(C)CC[C@@H]([C@H](C)C(=O)OC)OO1` [AIKUPIKOXIDE D], the IC50 in the test with P388, with A549 and in the test with HT-29 was at least 1 µg/mL throughout.
`COc1cccc2c1C(=O)c1c(O)c3c(c(O)c1C2=O)C[C@@](O)(C(=O)CO)C[C@@H]3O[C@H]1C[C@H](N)[C@H](O)[C@H](C)O1` [DOXORUBICIN HYDROCHLORIDE]: the IC50 in the test with P388 was 0.0114 nM; with HCT-116, 1.2 nM; in the test on HepG2 [1], 1 nM.
Take `C/C1=C/C(=O)O[C@@H]2C[C@@H](CC[C@H](C)/C=C\C=C\CC1)O[C@@](OC(=O)c1ccccc1)([C@@H]1CSC(=O)N1)C2`: the 50% inhibitory concentration (IC50) in the test on MCF7 was 520 nM; with MDA-MB-231 [4] it was 5050 nM; in [6] it was 466 nM. In addition, the inhibition in test [5] was determined as 23%; in the test filed under Homo sapiens, 67%.
Take `COC1=C(Br)[C@H]2OC(=O)C[C@]2(O)C=C1Br`: the concentration for half-maximal inhibition (IC50) in the test on MDA-MB-231 [3] was determined as 18000 nM.
Regarding `C/C1=C/C(=O)O[C@@H]2C[C@@H](CC[C@H](C)/C=C\C=C\CC1)O[C@@](O)([C@@H]1CSC(=O)N1)C2` [LATRUNCULIN A], the IC50 was determined as 480 nM in the test on MCF7, 4190 nM with MDA-MB-231 [4] and 284 nM in [6]. Besides, the values for the inhibition (in test [5]; in the test filed under Homo sapiens) were 30% and 70%, respectively.
For `CCN1C(=O)SC[C@H]1[C@@]1(O)C[C@H]2C[C@@H](CC[C@H](C)/C=C\C=C\CC/C(C)=C\C(=O)O2)O1`, the concentration for half-maximal inhibition (IC50) in the test on MCF7 worked out at 950 nM; with MDA-MB-231 [4], 7190 nM; in test [6] it was 283 nM. Moreover, the inhibition in [5] turned out to be 31%; in the test filed under Homo sapiens it was 70%.
Consider `C/C1=C/C(=O)O[C@@H]2C[C@@H](CC[C@H](C)/C=C\C=C\CC1)O[C@@](O)([C@@H]1CSC(=O)N1Cc1ccccc1)C2`, for which the figures for the IC50 (with MCF7; with MDA-MB-231 [4]; in [6]) were 630 nM, 2720 nM and 445 nM, respectively. In addition, the inhibition turned out to be 24% in test [5] and 64% in the test listed under Homo sapiens.

The term IC50 denotes the midpoint of a concentration-inhibition curve. For orientation: inhibition means how much of the control response was suppressed.
